Test results as given in PubChem BioAssay (NCI).
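Values below derive from 48-hour exposures of cells grown in 96-well plates, with endpoints linearly interpolated between the two concentrations bracketing the appropriate inhibition level. Definition used: TGI = concentration required for complete inhibition of growth.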 Where a SMILES comes first, the peptide text is derived from it. The star is where a group is joined. Cbz = O=C(OCc1ccccc1)*; OBn = c1ccc(CO*)cc1

Columns and labels:
Test in all cases: NCI-60 cell line screen, 48 h
HCT-116 colon = tested on: HCT-116 colon
SK-MEL-28 melanoma = tested on: SK-MEL-28 melanoma
U251 CNS = tested on: U251 CNS
A549 NSCLC = tested on: A549 NSCLC
K-562 leukemia = tested on: K-562 leukemia
OVCAR-5 ovarian = tested on: OVCAR-5 ovarian
NCI-H23 lung = tested on: NCI-H23 lung
MCF7 breast = tested on: MCF7 breast
RXF 393 renal = tested on: RXF 393 renal
SNB-19 CNS = tested on: SNB-19 CNS

Row | Compound | TGI (HCT-116 colon) | TGI (SK-MEL-28 melanoma) | TGI (U251 CNS) | TGI (A549 NSCLC) | TGI (K-562 leukemia) | TGI (OVCAR-5 ovarian) | TGI (NCI-H23 lung) | TGI (MCF7 breast) | TGI (RXF 393 renal) | TGI (SNB-19 CNS)
1 | C=C1C(=O)C([Si](C)(C)C)=C2C=C(C)C3(CC3)C12C (stereo not given) | > 100 µM | > 100 µM | > 100 µM | > 100 µM | 54.1 µM | > 100 µM | > 100 µM | 70.4 µM | 60.5 µM | > 100 µM
2 | O=S1(=O)c2cnccc2NC(=NCc2cccc3ccccc23)N1c1ccccc1 | > 100 µM | > 100 µM | > 100 µM | > 100 µM | > 100 µM | > 100 µM | > 100 µM | > 100 µM | > 90.4 µM | > 100 µM
3 | CCOC(=O)c1ccc(C(=O)OCC)n1-c1cc2cc(c1)CSCc1cc(cc(-n3c(C(=O)OCC)ccc3C(=O)OCC)c1)CSC2 | > 10 µM | > 10 µM | > 10 µM | > 10 µM | > 10 µM | > 10 µM | > 10 µM | > 10 µM | > 10 µM | > 10 µM
4 | COC(=O)CNC(=O)C(C)NC(=O)C(CC(=O)OCc1ccccc1)NC(=O)OCc1ccccc1 (stereo not drawn) (Cbz-Asp(OBn)-Ala-Gly-OMe; configuration not given here) | > 100 µM | > 100 µM | > 100 µM | > 100 µM | > 100 µM | > 100 µM | > 100 µM | > 100 µM | 68.6 µM | > 100 µM
5 | C/C(=N\N)C(CN(C)C)C(c1ccccc1)c1c(O)c2ccccc2oc1=O (stereo not given) | > 100 µM | > 100 µM | > 100 µM | > 100 µM | > 100 µM | > 100 µM | > 100 µM | > 100 µM | > 100 µM | > 100 µM
6 | NCCCCNCCCN1CC1 | > 100 µM | > 26 µM | 28.9 µM | > 100 µM | > 26.4 µM | > 82.9 µM | 16.2 µM | > 100 µM | 1.05 µM | 22.5 µM
7 | Cc1nc2sc(CCl)nn2c(=O)c1Cl | 26.2 µM | 27.3 µM | 19.2 µM | 29.6 µM | 28.1 µM | 28.7 µM | 33.3 µM | 18.1 µM | 11 µM | 32.3 µM
8 | Cc1ccc(NCC2CC/C(=C\c3ccc(Cl)cc3)C2=O)cc1 (stereo not given) | 26 µM | 36.7 µM | 34 µM | > 100 µM | > 19.8 µM | > 54.5 µM | 45.7 µM | 26.7 µM | 31 µM | > 55.7 µM
9 | O=C1CSC2(CC(/C=C/c3ccccc3O)=NN2c2cccc(S(=O)(=O)O)c2)N1c1nc2ccccc2s1 (stereo not given) | > 100 µM | > 100 µM | > 100 µM | > 100 µM | > 100 µM | 64.4 µM | > 100 µM | > 100 µM | > 100 µM | > 100 µM
10 | O=C1c2cc3c(cc2CC12Cc1cc4c(cc1C2=O)CCCC4)CCCC3 | > 100 µM | > 100 µM | > 100 µM | > 100 µM | > 100 µM | > 100 µM | > 100 µM | > 100 µM | 51.6 µM | > 100 µM
11 | CC(C)OP(=O)(OC(C)C)C(C(C)C)N(C)/C(N)=N\C1=NC(C(F)(F)F)(C(F)(F)F)N=C(C(C(F)(F)F)C(F)(F)F)O1 (stereo not given) | 6.6 µM | 12.4 µM | 11.2 µM | 14.6 µM | 5.11 µM | 11.4 µM | 14.6 µM | 32 µM | 4.08 µM | 44.9 µM
12 | O=C(O)C1CC2C3CCC2C1C3=O (stereo not given) | > 100 µM | > 100 µM | > 100 µM | > 100 µM | > 100 µM | > 100 µM | > 100 µM | > 100 µM | > 100 µM | > 100 µM
13 | CCOC(=O)c1cc(Sc2ccc(N)c(C(=O)OCC)c2)ccc1N | > 100 µM | > 100 µM | > 100 µM | > 100 µM | > 100 µM | > 100 µM | > 100 µM | > 100 µM | > 100 µM | > 100 µM
14 | CCOC(=O)CCC(NC(=O)Cc1ccc(Nc2nc3ccccc3nc2-c2ccccc2)cc1)C(=O)OCC (stereo not given) | > 100 µM | > 100 µM | 78.1 µM | > 100 µM | > 100 µM | > 100 µM | > 100 µM | > 100 µM | 44.8 µM | > 100 µM
15 | Oc1ccccc1/C=N/Nc1nnc2c3ccccc3c3ccccc3c2n1 | > 100 µM | > 100 µM | > 100 µM | > 100 µM | > 100 µM | > 100 µM | > 100 µM | > 100 µM | > 100 µM | > 100 µM
16 | Fc1c(F)c(C(F)(F)F)c(F)c(F)c1N/N=C\c1c[nH]c2ccccc12 | 14.5 µM | 20 µM | 12.8 µM | 12 µM | 10.5 µM | 14.3 µM | 16.4 µM | 10.3 µM | 7.93 µM | 12 µM
17 | Cn1nc(Cc2ccc(Cl)cc2)n(N)c1=O | > 100 µM | > 100 µM | > 100 µM | > 100 µM | > 100 µM | > 100 µM | > 100 µM | > 100 µM | > 100 µM | > 100 µM
